This is an account of results in patent US20240383905A1, “FGFR INHIBITORS AND METHODS OF USE THEREOF” (3H PHARMACEUTICALS CO., LTD., priority 2021, published 2024).

The target of assay [1] is T1, FGFR3 (Homo sapiens, UniProt P22607).
T1 construct: purchased Carna 08-135
Description: FGFR3 Biochemical Caliper Assay (KinEASE-TK kit). Conditions: ratio FGFR3/FGFR2 of the biochemical assay. An outline of the steps:
(§1)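 KinEASE-TK HTRF readout: enzyme at 0.2 nM (FGFR1, FGFR3) preincubated 10 min at RT with 10-point 3-fold compound dilutions before TK-substrate/ATP start.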

Assay [2] concerns SNU16 cells. In words: SNU16 Cancer Cell Line Proliferation Assay (CellTiter-Glo). It is filed as cell-based. The gist of the method: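 SNU16 cells at 5000/well exposed to 9-point 3-fold serial compound dilutions (DMSO control) for 72 h at 37 °C, 5% CO2. Viability read by luminescence; IC50 calculated from dose-response.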
Assay [3] addresses T2, FGFR1 (Homo sapiens, UniProt P11362).
T2 construct: purchased Carna 08-133
In words: FGFR1 Biochemical Caliper Assay (KinEASE-TK kit). Conditions: ratio FGFR1/FGFR2 of the biochemical assay. An outline of the steps:
as §1

Assay [4] addresses T3, FGFR2 (Homo sapiens, UniProt P21802).
T3 construct: purchased Carna 08-134
Description: FGFR2 Biochemical Caliper Assay (KinEASE-TK kit). Conditions: 0.07 nM FGFR2; compound incubated with protein 10 min, reaction 45 min at RT; read-out: FGFR2 Cliper IC50.

Read-outs that look alike come from different tables or passages of the source.

T2 sequence (P11362 22-822): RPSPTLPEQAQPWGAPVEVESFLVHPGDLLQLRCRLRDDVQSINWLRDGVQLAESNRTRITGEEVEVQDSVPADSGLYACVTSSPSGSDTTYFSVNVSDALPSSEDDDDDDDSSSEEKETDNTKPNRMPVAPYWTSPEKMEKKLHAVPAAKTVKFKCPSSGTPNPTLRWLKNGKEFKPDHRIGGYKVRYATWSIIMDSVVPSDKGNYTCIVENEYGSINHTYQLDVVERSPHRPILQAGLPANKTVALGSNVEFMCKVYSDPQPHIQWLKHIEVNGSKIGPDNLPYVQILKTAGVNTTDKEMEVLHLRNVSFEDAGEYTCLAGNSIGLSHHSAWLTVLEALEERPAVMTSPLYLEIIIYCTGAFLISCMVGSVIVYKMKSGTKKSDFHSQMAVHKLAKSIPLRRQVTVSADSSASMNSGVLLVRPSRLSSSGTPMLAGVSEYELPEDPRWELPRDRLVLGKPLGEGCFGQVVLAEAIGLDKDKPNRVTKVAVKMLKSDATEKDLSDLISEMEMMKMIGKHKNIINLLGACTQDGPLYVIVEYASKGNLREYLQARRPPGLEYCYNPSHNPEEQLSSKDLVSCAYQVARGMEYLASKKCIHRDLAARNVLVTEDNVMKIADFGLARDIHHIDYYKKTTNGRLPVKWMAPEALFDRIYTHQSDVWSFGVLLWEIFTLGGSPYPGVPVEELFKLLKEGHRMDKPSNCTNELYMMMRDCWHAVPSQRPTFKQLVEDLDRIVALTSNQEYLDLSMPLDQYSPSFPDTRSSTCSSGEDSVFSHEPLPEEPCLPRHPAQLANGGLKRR
T1 sequence (P22607 23-806): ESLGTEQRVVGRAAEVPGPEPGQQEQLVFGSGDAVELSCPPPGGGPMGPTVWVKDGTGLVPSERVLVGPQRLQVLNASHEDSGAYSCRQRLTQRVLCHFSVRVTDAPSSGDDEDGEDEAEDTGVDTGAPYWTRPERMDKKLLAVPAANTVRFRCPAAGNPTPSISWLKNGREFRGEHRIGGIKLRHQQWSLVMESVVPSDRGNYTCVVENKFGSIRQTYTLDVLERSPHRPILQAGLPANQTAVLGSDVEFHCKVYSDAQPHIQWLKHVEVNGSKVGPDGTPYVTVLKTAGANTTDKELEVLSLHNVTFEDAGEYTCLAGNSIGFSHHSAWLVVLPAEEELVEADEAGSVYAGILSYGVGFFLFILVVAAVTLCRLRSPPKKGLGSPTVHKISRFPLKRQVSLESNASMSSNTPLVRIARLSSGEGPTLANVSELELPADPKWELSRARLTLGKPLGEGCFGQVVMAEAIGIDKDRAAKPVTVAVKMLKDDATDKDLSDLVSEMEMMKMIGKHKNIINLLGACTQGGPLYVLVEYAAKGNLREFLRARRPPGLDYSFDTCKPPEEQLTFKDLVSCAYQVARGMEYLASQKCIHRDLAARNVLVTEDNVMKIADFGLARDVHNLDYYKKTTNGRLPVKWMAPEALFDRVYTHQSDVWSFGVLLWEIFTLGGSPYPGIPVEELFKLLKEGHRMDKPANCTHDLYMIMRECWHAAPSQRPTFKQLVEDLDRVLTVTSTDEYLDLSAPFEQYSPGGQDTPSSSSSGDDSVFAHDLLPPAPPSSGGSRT
T3 sequence (P21802 22-821): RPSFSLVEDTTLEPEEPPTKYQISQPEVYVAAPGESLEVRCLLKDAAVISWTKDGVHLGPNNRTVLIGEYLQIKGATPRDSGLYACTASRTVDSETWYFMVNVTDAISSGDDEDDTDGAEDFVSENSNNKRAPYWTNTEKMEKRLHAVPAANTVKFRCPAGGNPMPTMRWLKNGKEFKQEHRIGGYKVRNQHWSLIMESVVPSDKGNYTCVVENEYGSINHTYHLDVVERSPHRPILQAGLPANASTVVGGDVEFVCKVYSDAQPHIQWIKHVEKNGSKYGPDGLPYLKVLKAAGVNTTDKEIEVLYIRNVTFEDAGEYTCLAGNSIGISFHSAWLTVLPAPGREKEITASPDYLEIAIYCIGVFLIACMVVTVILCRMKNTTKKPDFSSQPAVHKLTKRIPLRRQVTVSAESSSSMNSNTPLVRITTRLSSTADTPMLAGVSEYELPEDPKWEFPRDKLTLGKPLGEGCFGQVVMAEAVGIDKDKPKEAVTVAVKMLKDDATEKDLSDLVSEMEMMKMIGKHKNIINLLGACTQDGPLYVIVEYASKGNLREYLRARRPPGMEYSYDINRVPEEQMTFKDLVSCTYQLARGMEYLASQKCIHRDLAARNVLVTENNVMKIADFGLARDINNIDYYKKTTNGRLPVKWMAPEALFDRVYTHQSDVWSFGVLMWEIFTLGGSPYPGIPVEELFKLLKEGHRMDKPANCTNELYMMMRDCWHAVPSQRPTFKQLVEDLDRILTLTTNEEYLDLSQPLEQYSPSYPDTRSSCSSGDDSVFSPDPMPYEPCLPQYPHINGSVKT

Take `C=C(F)C(=O)Nc1ccc(-c2nn3ncnc(N)c3c2-c2ccc(C(=O)NCC3CC3)c(OC)c2)cc1` [Compound 163]: the “Selectivity FGFR3/FGFR2” value in assay [1] was “A+ (Selectivity of FGFR3/FGFR2 greater or equal to 150)”. In addition, the 50% inhibitory concentration (IC50) in assay [2] (Homo sapiens, SNU-16, 72 h) is at most 10 nM; in assay [4] it was below 5 nM. For the same molecule, in assay [3], the “Selectivity FGFR1/FGFR2” value was “A+ (Selectivity of FGFR1/FGFR2 greater or equal to 500)”.

Take `C=C(C)C(=O)Nc1ccc(-c2nn3ncnc(N)c3c2-c2ccc(C(=O)NC3(C(F)(F)F)CC3)c(OC)c2)c(F)c1` [Compound 429]: in assay [1], the “Selectivity FGFR3/FGFR2” value was “A+ (Selectivity of FGFR3/FGFR2 greater or equal to 150)”. Besides, the IC50 in assay [2] (Homo sapiens, SNU-16, 72 h) was at most 10 nM; in assay [4] it was 5 to 10 nM. In assay [3], the “Selectivity FGFR1/FGFR2” value is “A+ (Selectivity of FGFR1/FGFR2 greater or equal to 500)”.

As to `C=CC(=O)Nc1ccc(-c2nn3ncnc(N)c3c2-c2ccc(NC(=O)C3CC3(F)F)c(OC)c2)cc1` (stereo not shown) [Compound 339, N-(4-(6-(4-acrylamidophenyl)-4-aminopyrazolo[5,1-f][1,2,4]triazin-5-yl)-2-methoxyphenyl)-2,2-difluorocyclopropane-1-carboxamide], the “Selectivity FGFR3/FGFR2” value in assay [1] is recorded as “B (Selectivity of FGFR3/FGFR2 less than 100 but greater than or equal to 25)”. The IC50 was at most 10 nM in assay [2] (Homo sapiens, SNU-16, 72 h) and above 10 nM in assay [4]. For the same molecule, the “Selectivity FGFR1/FGFR2” value in assay [3] was “C (Selectivity of FGFR1/FGFR2 less than 200 but greater than or equal to 100)”.

For the molecule `C=CC(=O)Nc1ccc(-c2nn3ncnc(N)c3c2-c2ccc(C(=O)NCC3CCC3)c(OC)c2)cc1` [Compound 45, 4-(6-(4-acrylamidophenyl)-4-aminopyrazolo[5,1-f] [1,2,4]triazin-5-yl)-N-(cyclobutylmethyl)-2-methoxybenzamide], in assay [1], the “Selectivity FGFR3/FGFR2” value is on record as “B (Selectivity of FGFR3/FGFR2 less than 100 but greater than or equal to 25)”. For the same molecule, the IC50 in assay [2] (Homo sapiens, SNU-16, 72 h) is at most 10 nM; in assay [4], below 5 nM. For the same molecule, the “Selectivity FGFR1/FGFR2” value in assay [3] is listed as “B (Selectivity of FGFR1/FGFR2 less than 300 but greater than or equal to 200)”.

In the case of `C=CC(=O)Nc1ccc(-c2nn3ncnc(N)c3c2-c2ccc(C(=O)NCCF)c(OC)c2)cc1` [Compound 194, 4-(6-(4-acrylamidophenyl)-4-aminopyrazolo[5,1-f][1,2,4]triazin-5-yl)-N-(2-fluoroethyl)-2-methoxybenzamide], the “Selectivity FGFR3/FGFR2” value in assay [1] was “A+ (Selectivity of FGFR3/FGFR2 greater or equal to 150)”. The IC50 in assay [2] (Homo sapiens, SNU-16, 72 h) was at most 10 nM; in assay [4], 5 to 10 nM. For the same molecule, in assay [3], the “Selectivity FGFR1/FGFR2” value is listed as “B (Selectivity of FGFR1/FGFR2 less than 300 but greater than or equal to 200)”.

In the case of `C=CC(=O)Nc1ccc(-c2nn3ncnc(N)c3c2-c2ccc(C(=O)NC3(C)CC3)c(OC)c2)cc1` [Compound 162, 4-(6-(4-acrylamidophenyl)-4-aminopyrazolo[5,1-f] [1,2,4]triazin-5-yl)-2-methoxy-N-(1-methylcyclopropyl)benzamide], the “Selectivity FGFR3/FGFR2” value in assay [1] was “A+ (Selectivity of FGFR3/FGFR2 greater or equal to 150)”. Further, the IC50 is at most 10 nM in assay [2] (Homo sapiens, SNU-16, 72 h) and below 5 nM in assay [4]. In addition, in assay [3], the “Selectivity FGFR1/FGFR2” value is reported as “A+ (Selectivity of FGFR1/FGFR2 greater or equal to 500)”.

Take `C=C(F)C(=O)Nc1ccc(-c2nn3ncnc(N)c3c2-c2ccc(C(=O)NC34CC(F)(C3)C4)c(OC)c2)c(OC)c1` [Compound 416, 4-(4-amino-6-(4-(2-fluoroacrylamido)-2-methoxyphenyl)pyrazolo[5,1-f][1,2,4]triazin-5-yl)-N-(3-fluorobicyclo[1.1.1]pentan-1-yl)-2-methoxybenzamide]: in assay [1], the “Selectivity FGFR3/FGFR2” value was “B (Selectivity of FGFR3/FGFR2 less than 100 but greater than or equal to 25)”. The half-inhibitory concentration (IC50) was at most 10 nM in assay [2] (Homo sapiens, SNU-16, 72 h) and below 5 nM in assay [4]. Further, the “Selectivity FGFR1/FGFR2” value in assay [3] is reported as “B (Selectivity of FGFR1/FGFR2 less than 300 but greater than or equal to 200)”.

With `C=CC(=O)Nc1ccc(-c2c(-c3ccc(C(=O)NC4CCC4)c(OC)c3)c3c(N)ncc(C#N)c3n2CCOC)cc1` [Compound 59, 4-(2-(4-acrylamidophenyl)-4-amino-7-cyano-1-(2-methoxyethyl)-1H-pyrrolo[3,2-c]pyridin-3-yl)-N-cyclobutyl-2-methoxybenzamide], the “Selectivity FGFR3/FGFR2” value in assay [1] is “A (Selectivity of FGFR3/FGFR2 less than 150 but greater than or equal to 100)”. The IC50 in assay [2] (Homo sapiens, SNU-16, 72 h) is at most 10 nM; in assay [4], below 5 nM. Also, in assay [3], the “Selectivity FGFR1/FGFR2” value is recorded as “A (Selectivity of FGFR1/FGFR2 less than 500 but greater than or equal to 300)”.

Turning to `C=CC(=O)Nc1ccc(-c2nn3ncnc(N)c3c2-c2ccc(C(=O)NCC(C)(C)OC)c(OC)c2)cc1` [Compound 56, 4-(6-(4-acrylamidophenyl)-4-aminopyrazolo[5,1-f] [1,2,4]triazin-5-yl)-2-methoxy-N-(2-methoxy-2-methylpropyl)benzamide], the “Selectivity FGFR3/FGFR2” value in assay [1] is on record as “A (Selectivity of FGFR3/FGFR2 less than 150 but greater than or equal to 100)”. Also, the IC50 is at most 10 nM in assay [2] (Homo sapiens, SNU-16, 72 h) and 5 to 10 nM in assay [4]. In addition, the “Selectivity FGFR1/FGFR2” value in assay [3] was “A+ (Selectivity of FGFR1/FGFR2 greater or equal to 500)”.

Turning to `C=C(F)C(=O)Nc1ccc(-c2nn3ncnc(N)c3c2-c2ccc(C(=O)NCC(C)C)cc2)cc1` [Compound 48, 4-(4-amino-6-(4-(2-fluoroacrylamido)phe-nyl)pyrazolo[5,1-f] [1,2,4]triazin-5-yl)-N-isobutylbenzamide], in assay [1], the “Selectivity FGFR3/FGFR2” value is recorded as “B (Selectivity of FGFR3/FGFR2 less than 100 but greater than or equal to 25)”. Further, the IC50 in assay [2] (72 h, read-out: Cell SNU-16 IC50) was at most 10 nM; in assay [4] it was below 5 nM. Moreover, the “Selectivity FGFR1/FGFR2” value in assay [3] is given as “A+ (Selectivity of FGFR1/FGFR2 greater or equal to 500)”.

For `C=CC(=O)Nc1ccc(-n2nc3c(=O)[nH]nc(N)c3c2-c2ccc(Oc3nccc(C)n3)c(OC)c2)cc1` [Compound 134, N-(4-(4-amino-3-(3-methoxy-4-((4-methylpyrimidin-2-yl)oxy)phenyl)-7-oxo-6,7-dihydro-2H-pyrazolo[3,4-d]pyridazin-2-yl)phenyl)acrylamide], the “Selectivity FGFR3/FGFR2” value in assay [1] is given as “A+ (Selectivity of FGFR3/FGFR2 greater or equal to 150)”. Further, the 50% inhibitory concentration (IC50) in assay [2] (Homo sapiens, SNU-16, 72 h) is above 50 nM; in assay [4], below 5 nM. Besides, in assay [3], the “Selectivity FGFR1/FGFR2” value is listed as “C (Selectivity of FGFR1/FGFR2 less than 200 but greater than or equal to 100)”.

On to `C=C(F)C(=O)Nc1ccc(-c2nn3ncnc(N)c3c2-c2ccc(Oc3cccc(C)n3)c(F)c2)c(F)c1` [Compound 438, N-(4-(4-amino-5-(3-fluoro-4-((6-methylpyridin-2-yl)oxy)phenyl)pyrazolo [5,1-f][1,2,4]triazin-6-yl)-3-fluorophenyl)-2-fluoroacrylamide], for which the “Selectivity FGFR3/FGFR2” value in assay [1] is “A+ (Selectivity of FGFR3/FGFR2 greater or equal to 150)”. Moreover, the IC50 in assay [2] (Homo sapiens, SNU-16, 72 h) is at most 10 nM; in assay [4], below 5 nM. The “Selectivity FGFR1/FGFR2” value in assay [3] is given as “A+ (Selectivity of FGFR1/FGFR2 greater or equal to 500)”.

For `C=C(F)C(=O)Nc1ccc(-c2[nH]c3c(C#N)cnc(N)c3c2-c2ccc(C(=O)NC3CC3)c(OC)c2)c(F)c1` [Compound 267, 4-(4-amino-7-cyano-2-(2-fluoro-4-(2-fluoroacrylamido)phe-nyl)-1H-pyrrolo[3,2-c]pyridin-3-yl)-N-cyclopropyl-2-methoxybenzamide], the “Selectivity FGFR3/FGFR2” value in assay [1] is “A+ (Selectivity of FGFR3/FGFR2 greater or equal to 150)”. Further, the concentration for half-maximal inhibition (IC50) in assay [2] (Homo sapiens, SNU-16, 72 h) was at most 10 nM; in assay [4], below 5 nM. Besides, the “Selectivity FGFR1/FGFR2” value in assay [3] is recorded as “B (Selectivity of FGFR1/FGFR2 less than 300 but greater than or equal to 200)”.

On to `C=CC(=O)Nc1ccc(-c2nn3ncnc(N)c3c2-c2ccc(C(=O)NCC(F)(F)F)c(OC)c2)c(F)c1` [Compound 86, 4-(6-(4-acrylamido-2-fluorophenyl)-4-aminopyrazolo[5,1-f] [1,2,4]triazin-5-yl)-2-methoxy-N-(2,2,2-trifluoroethyl)benzamide], for which the “Selectivity FGFR3/FGFR2” value in assay [1] is listed as “B (Selectivity of FGFR3/FGFR2 less than 100 but greater than or equal to 25)”. The IC50 in assay [2] (Homo sapiens, SNU-16, 72 h) was at most 10 nM; in assay [4], below 5 nM. For the same molecule, the “Selectivity FGFR1/FGFR2” value in assay [3] is “A+ (Selectivity of FGFR1/FGFR2 greater or equal to 500)”.

Regarding `C=C(F)C(=O)Nc1ccc(-c2nn3ncnc(N)c3c2-c2ccc(Oc3cccc(C)n3)c(F)c2)c(C)c1` [Compound 439, N-(4-(4-amino-5-(3-fluoro-4-((6-methylpyridin-2-yl)oxy)phenyl)pyrazolo [5,1-f][1,2,4]triazin-6-yl)-3-methylphenyl)-2-fluoroacrylamide], the “Selectivity FGFR3/FGFR2” value in assay [1] is listed as “B (Selectivity of FGFR3/FGFR2 less than 100 but greater than or equal to 25)”. For the same molecule, the IC50 in assay [2] (Homo sapiens, SNU-16, 72 h) was at most 10 nM; in assay [4], below 5 nM. Moreover, in assay [3], the “Selectivity FGFR1/FGFR2” value is listed as “C (Selectivity of FGFR1/FGFR2 less than 200 but greater than or equal to 100)”.

Take `C=CC(=O)Nc1ccc(-c2c(-c3ccc(C(=O)NCC(F)(F)F)c(OC)c3)c3c(N)ncc(C#N)c3n2CCOC)cc1` [Compound 318, 4-(2-(4-acrylamidophenyl)-4-amino-7-cyano-1-(2-methoxyethyl)-1H-pyrrolo[3,2-c]pyridin-3-yl)-2-methoxy-N-(2,2,2-trifluoroethyl)benzamide]: the “Selectivity FGFR3/FGFR2” value in assay [1] is “A (Selectivity of FGFR3/FGFR2 less than 150 but greater than or equal to 100)”. The IC50 is at most 10 nM in assay [2] (Homo sapiens, SNU-16, 72 h) and below 5 nM in assay [4]. Moreover, the “Selectivity FGFR1/FGFR2” value in assay [3] is given as “C (Selectivity of FGFR1/FGFR2 less than 200 but greater than or equal to 100)”.
